Series [1] deals with rat DP2 (Rattus norvegicus (Rat), UniProt Q6XKD3). As to the kind of experiment: In vitro DP2/CRTH2 radioligand ([3H]PGD2) membrane binding assay. To be noted: average. The protocol:
(§1) Example 15: In Vitro DP2/CRTH2 Binding Assay
(§2) The ability of Compound 1 to bind to the human DP2 receptor was assessed via a radioligand binding assay using [^3H]PGD2. HEK293 cells stably expressing recombinant human DP2 are resuspended in 10 mM Hepes, 7.4 containing 1 mM DTT, lysed and centrifuged at 75,000×g to pellet the membranes. The membranes are resuspended in 10 mM Hepes, 7.4 containing 1 mM DTT and 10% glycerol to approximately 5 mg protein/ml. Membranes (2-10 μg protein/well) are incubated in 96-well plates with 1 nM [^3H]PGD2 and Compound 1 in Assay Buffer (50 mM Hepes, 10 mM MnCl2, 1 mM EDTA, plus or minus 0.2% human serum albumin, pH 7.4) for 60 minutes at room temperature. The reactions are terminated by rapid filtration through Whatman GF/C glass fibre filter plates. The filter plates were pre-soaked in 0.33% polythylenimine for 30 minutes at room temperature then washed in Wash Buffer (50 mM Hepes, 0.5 M NaCl pH 7.4) prior to harvesting. After harvesting, the filter plates are washed 3 times with 1 ml cold Wash Buffer then dried. Scintillant is then added to the plates and the radioactivity retained on the filters is determined on a Packard TopCount (Perkin Elmer). Specific binding is determined as total radioactive binding minus non-specific binding in the presence of 10 μM PGD2. IC50s were determined using GraphPad prism analysis of drug titration curves. Mouse, rat and guinea pig DP2 receptors were also investigated.
(§3) The binding potency of Compound 1 is only slightly shifted in the presence of species-specific serum albumin.

The target in series [2] is mouse DP2 (Mus musculus (Mouse), UniProt Q9Z2J6). Described as above. The conditions noted are these: average. As to the method: as §1, §2, §3
mouse DP2, sequence (Q9Z2J6 whole entry): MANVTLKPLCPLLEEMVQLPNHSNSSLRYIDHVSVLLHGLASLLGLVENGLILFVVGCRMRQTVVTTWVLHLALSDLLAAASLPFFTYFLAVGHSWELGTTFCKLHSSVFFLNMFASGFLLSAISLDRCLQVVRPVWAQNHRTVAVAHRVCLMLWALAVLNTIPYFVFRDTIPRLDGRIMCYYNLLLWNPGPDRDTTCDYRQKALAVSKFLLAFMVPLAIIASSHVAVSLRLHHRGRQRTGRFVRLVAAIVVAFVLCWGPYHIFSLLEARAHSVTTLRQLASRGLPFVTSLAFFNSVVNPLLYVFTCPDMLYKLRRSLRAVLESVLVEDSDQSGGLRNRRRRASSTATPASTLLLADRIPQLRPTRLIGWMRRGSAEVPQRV
Series [3] has as its target guinea pig DP2 receptor (Cavia porcellus, UniProt H0W1T0). Described as above. As to the method: as §1
as §2, with “Mouse, rat and guinea pig DP2 receptors were also investigated.” left out

Series [4] has as its target CYP3A4 (Homo sapiens (Human), UniProt P08684). To be noted: human hepatocytes, 10 μM.
A short description of series [5]: Regional dosing study in rat (pharmacokinetics). To be noted: for Tmax / AUC / Cmax / bioavailability / half-life: Sprague-Dawley, in vivo. Type of series: in vivo. From the text: Example 11: Regional Dosing Study
Male Sprague-Dawley rats (weighing from about 200 to about 300 grams) in the fasted state received a single injection of a solution of Compound 2 (5% methocel) in the duodenum, jejunum or ileum. This was compared with PO administration of the same formulation of Compound 2. […]

A short description of series [6]: Phase I single ascending dose study, safety and tolerability. Type of series: in vivo, human. The conditions noted are these: humans, capsule, 5 to 500 mg single doses. From the text:
To assess: (1) the safety and tolerability of single and multiple doses of Compound 2 following oral administration; and (2) the pharmacokinetics (PK) of Compound 2 after single and multiple doses; and (3) the effects of the pharmacodynamic (PD) responses in healthy subjects to Compound 2 as measured by a PGD2-induced eosinophil shape change assay (ESC).
The Single Ascending Dose (SAD) study will include 6 cohorts with 8 subjects each, 6 receiving the active treatment and 2 receiving the placebo. The SAD study will explore doses of 5, 15, 50, 150, 300 and 500 mg/day. Compound 2 (Pattern 1) is administered as API in a Capsule, prepared on site at the clinical pharmacy (see Example 10). Safety monitoring will include: a “how do you feel” (HDYF) question, adverse events reporting, physical examinations, vital signs, ECG's, and a biological assessment (clinical chemistry, hematology and urinalysis). The decision to escalate to the next dose level will be based on the results of medical monitoring, and a blinded interim analysis of pharmacokinetic parameters (AUC, Cmax) and pharmacodynamic responses. Doses may be adjusted based on the occurrence of adverse events. Subjects will be followed on site for 72 hours after dose administration.

The target of series [7] is T1, CYP1A2 (Homo sapiens (Human), UniProt P05177). As to the kind of experiment: Extracellular cytochrome P450 inhibition (microsomes).
T1 sequence (P05177 whole entry): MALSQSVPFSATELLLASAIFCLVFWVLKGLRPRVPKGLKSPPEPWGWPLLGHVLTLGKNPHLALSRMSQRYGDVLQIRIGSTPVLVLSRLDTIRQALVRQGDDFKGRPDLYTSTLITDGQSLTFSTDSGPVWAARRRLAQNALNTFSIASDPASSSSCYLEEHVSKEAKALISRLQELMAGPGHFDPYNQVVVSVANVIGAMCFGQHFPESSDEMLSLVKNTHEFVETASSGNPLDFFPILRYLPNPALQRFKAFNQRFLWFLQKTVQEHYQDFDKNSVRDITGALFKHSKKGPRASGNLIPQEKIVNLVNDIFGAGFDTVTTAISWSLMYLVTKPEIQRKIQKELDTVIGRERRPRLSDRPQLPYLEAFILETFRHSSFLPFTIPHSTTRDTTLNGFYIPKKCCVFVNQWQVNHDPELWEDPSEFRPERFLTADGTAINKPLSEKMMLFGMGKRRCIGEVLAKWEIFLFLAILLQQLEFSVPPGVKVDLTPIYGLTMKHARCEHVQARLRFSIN
The subject of series [8] is ovalbumin (OVA)-induced allergic rhinitis. As to the kind of experiment: Mouse allergic rhinitis model. Type of series: in vivo. The conditions noted are these: 10 mg/kg PO daily. As to the method:
Example 18: Mouse Allergic Rhinitis Model
Compound 2 was evaluated in a mouse model of ovalbumin (OVA)-induced allergic rhinitis in which nasal ovalbumin challenges to OVA-primed mice elicits an increase in sneezing and nasal rubs (Methods were adapted from those detailed in Nakaya, M., et al. 2006, Laboratory Investigation, 86:917-926). OVA-primed mice received an intranasal challenge of OVA daily for 5 consecutive days. The number of sneezes and nasal rubs were counted over an 8 minute recording session on days 1, 3 and 5 immediately following OVA challenge. OVA caused a significant increase in both sneezing behavior and nasal rubs when compared to intranasal phosphate buffered saline (PBS) challenge. […] The plasma exposure for Compound 1 measured in a satellite group was 1360 nM, 460 nM, 210 nM and 90 nM for time points 1, 2, 4, and 6 hr post-dose, respectively.

Series [9] concerns the target CYP2D6 (Homo sapiens (Human), UniProt P10635). The series can be described thus: Extracellular cytochrome P450 inhibition (microsomes). The series is classed as in vitro ADME. The conditions noted are these: 2D6, dextromethorphan O-demethylation.
Series [10] addresses T1, CYP1A2. The conditions noted are these: microsomes, pH 7.4.

Structures can show the parent of a compound that is named as a salt. Where two headings read alike, the source gives them in different places.

Experimental findings from US9688624B2, “DP2 antagonist and uses thereof” (Brickell Biotech, Inc., priority 2010, dated 2017) are described below.

What is called IC50 is the midpoint of a concentration-inhibition curve. The Tmax is the time from dosing to the highest level. The AUC is concentration integrated over time. Low values mean less exposure, high ones more exposure. In general, Cmax refers to the highest concentration seen after dosing. By bioavailability is commonly meant dose-corrected exposure relative to a reference, in per cent. Low values mean little systemic uptake, high ones much systemic uptake. Usually half-life stands for the time in which the quantity being followed falls by half. High values mean slow loss, low ones fast loss.

rat DP2, sequence (Q6XKD3 whole entry): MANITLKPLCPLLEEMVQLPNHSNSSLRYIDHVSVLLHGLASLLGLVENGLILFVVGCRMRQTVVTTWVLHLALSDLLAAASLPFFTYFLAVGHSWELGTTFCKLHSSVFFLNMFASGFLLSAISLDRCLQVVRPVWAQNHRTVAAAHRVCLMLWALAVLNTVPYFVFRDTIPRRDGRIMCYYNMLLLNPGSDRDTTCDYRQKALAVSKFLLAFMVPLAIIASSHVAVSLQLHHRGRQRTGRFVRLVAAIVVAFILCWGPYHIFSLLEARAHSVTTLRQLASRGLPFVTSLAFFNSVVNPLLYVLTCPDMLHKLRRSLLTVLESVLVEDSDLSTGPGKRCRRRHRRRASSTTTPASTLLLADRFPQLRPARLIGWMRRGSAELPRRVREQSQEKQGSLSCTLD
CYP2D6, sequence (P10635 whole entry): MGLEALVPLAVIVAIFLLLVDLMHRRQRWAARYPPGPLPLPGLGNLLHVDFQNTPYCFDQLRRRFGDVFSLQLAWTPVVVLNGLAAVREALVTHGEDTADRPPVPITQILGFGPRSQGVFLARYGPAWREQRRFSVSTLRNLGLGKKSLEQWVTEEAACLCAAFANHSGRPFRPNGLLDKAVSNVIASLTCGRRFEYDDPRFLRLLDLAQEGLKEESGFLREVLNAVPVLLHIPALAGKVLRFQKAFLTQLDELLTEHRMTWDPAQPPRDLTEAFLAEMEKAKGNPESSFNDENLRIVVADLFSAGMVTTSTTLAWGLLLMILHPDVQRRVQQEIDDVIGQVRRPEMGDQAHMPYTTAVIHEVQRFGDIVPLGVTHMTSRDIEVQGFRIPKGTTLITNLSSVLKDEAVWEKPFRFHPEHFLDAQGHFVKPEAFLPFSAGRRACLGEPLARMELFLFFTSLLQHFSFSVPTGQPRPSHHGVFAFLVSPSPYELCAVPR
guinea pig DP2 receptor, sequence (H0W1T0 1-391): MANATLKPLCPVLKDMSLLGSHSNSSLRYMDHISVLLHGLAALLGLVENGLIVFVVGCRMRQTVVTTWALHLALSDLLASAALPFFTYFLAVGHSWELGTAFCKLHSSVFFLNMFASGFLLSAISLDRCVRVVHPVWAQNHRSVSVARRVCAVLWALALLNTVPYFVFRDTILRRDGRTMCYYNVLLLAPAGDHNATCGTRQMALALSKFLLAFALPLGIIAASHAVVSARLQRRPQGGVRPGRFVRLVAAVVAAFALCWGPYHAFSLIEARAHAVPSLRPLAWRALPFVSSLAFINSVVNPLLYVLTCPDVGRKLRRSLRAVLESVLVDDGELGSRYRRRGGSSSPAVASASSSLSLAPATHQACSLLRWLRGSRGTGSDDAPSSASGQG

In the case of `COc1ccc(CC(=O)O)cc1Oc1ccc(NC(=O)C(C)(C)C)cc1CSC(C)(C)C` [Compound 1, 2-(3-(2-((tert-butylthio)methyl)-4-(2,2-dimethyl-propionylamino)phenoxy)-4-methoxyphenyl)acetic acid], the half-inhibitory concentration (IC50) is 10.4 nM in series [1] (0.2% species-specific albumin, read-out: IC50, radioligand membrane binding on rat DP2); 7 nM in series [1] (without serum albumin, read-out: IC50, inhibition of radiolabeled PGD2 binding to rat DP2); 11.4 nM in [2] (0.2% species-specific albumin, read-out: IC50, radioligand membrane binding on mouse DP2); 9.7 nM in series [2] (without serum albumin, read-out: IC50, inhibition of radiolabeled PGD2 binding to mouse DP2); 20.3 nM in series [3] (0.2% guinea pig serum albumin, read-out: IC50, radioligand membrane binding on guinea pig DP2); 10.6 nM in [3] (average, without serum albumin, read-out: IC50, inhibition of radiolabeled PGD2 binding to guinea pig DP2). For the same compound, the “induction of CYP3A4” value in series [4] was “not a strong inducer”.
On to `COc1ccc(CC(=O)O)cc1Oc1ccc(NC(=O)C(C)(C)C)cc1CSC(C)(C)C` [Compound 2, 2-(3-(2-((tert-butylthio)methyl)-4-(2,2-dimethyl-propionylamino)phenoxy)-4-methoxyphenyl)acetic acid, sodium salt], for which the Tmax in [5] (iv, 2 mg/kg) is 0.08 h; in [5] (male, 10 mg/kg, duodenum), 0.25 h; in series [5] (male, 10 mg/kg, ileum), 0.63 h; in series [5] (male, 10 mg/kg, jejunum) it was 0.25 h; in series [5] (male, po, 10 mg/kg) it was 0.75 h. Also, the AUC in [5] (male, 10 mg/kg, duodenum) is 5010 ng·h/mL; in [5] (male, 10 mg/kg, ileum) it was 1980 ng·h/mL; in [5] (male, 10 mg/kg, jejunum), 8110 ng·h/mL; in series [5] (male, iv, 2 mg/kg), 3670 ng·h/mL; in series [5] (male, po, 10 mg/kg) it was 4370 ng·h/mL. The Cmax was determined as 4310 ng/mL in [5] (male, 10 mg/kg, duodenum); 610 ng/mL in series [5] (male, 10 mg/kg, ileum); 12700 ng/mL in series [5] (male, 10 mg/kg, jejunum); 3060 ng/mL in series [5] (male, po, 10 mg/kg). Further, the bioavailability in series [5] (male, 10 mg/kg, duodenum) is 27.3%; in series [5] (male, 10 mg/kg, ileum) it was 10.8%; in [5] (male, 10 mg/kg, jejunum), 44.2%; in [5] (male, po, 10 mg/kg) it was 23.8%. The half-life in series [5] (male, 10 mg/kg, duodenum) is 4.12 h; in series [5] (male, 10 mg/kg, ileum) it was 5.06 h; in [5] (male, 10 mg/kg, jejunum) it was 5.29 h; in series [5] (male, iv, 2 mg/kg), 2 h; in [5] (male, po, 10 mg/kg), 1.5 h. For the same compound, the site of absorption result in series [5] (regional dosing) is listed as “preferentially absorbed in the jejunum”. Also, in series [6], the tolerability result is on record as “well tolerated”. Moreover, the IC50 in series [7] was over 25000 nM; in series [9] it was over 50000 nM; in series [10] it was over 50000 nM. Further, the “nasal responses (sneezes and nasal rubs) after OVA challenge” value in series [8] is reported as “significantly reduced”.
